Patent US10208059B2, “Heterocyclic modulators of HIF activity for treatment of disease” (Board of Regents, University of Texas System, priority 2012, dated 2019)

The compounds below were run on 293T-HRE-GFP-luc cells (assay: Cell-based reporter assay for IC50 determinations). Conditions: hypoxia 6 hrs (1% O2), luminescence, read-out: IC50 Classification.
Procedure, shortened: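 IC50 comes from a four-parameter logistic fit of luminescence from HRE-GFP-luc 293T cells. Compounds (1:3 series, 1:50 medium dilution) were preincubated 30 min under normoxia, followed by 6 h at 1% O2, 5% CO2, 37 °C, before Steadylite luciferase detection.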

Compound | IC50
Cc1nc(-c2nc(-c3ccc(OC(F)(F)F)cc3)cs2)nn1Cc1ccnc(N2CCN(C)CC2)c1 [Example 87, 1-Methyl-4-{4-[(5-methyl-3-{4-[4-(trifluoromethoxy)phenyl]-1,3-thiazol-2-yl}-1H-1,2,4-triazol-1-yl)methyl]pyridin-2-yl}piperazine] | < 0.1 µM
Cc1nc(-c2nc(-c3ccc(OC(F)(F)F)cc3)cs2)nn1Cc1cccc(S(C)(=O)=O)c1 [Example 88, 1-[(3-Methanesulfonylphenyl)methyl]-5-methyl-3-{4-[4-(trifluoromethoxy)phenyl]-1,3-thiazol-2-yl}-1H-1,2,4-triazole] | 0.1 to 1 µM
Cc1nc(-c2nc(-c3ccc(OC(F)(F)F)cc3)cs2)nn1Cc1cccc(C(=O)N(C)C)c1 [Example 89, N,N-Dimethyl-3-[(5-methyl-3-{4-[4-(trifluoromethoxy)phenyl]-1,3-thiazol-2-yl}-1H-1,2,4-triazol-1-yl)methyl]benzamide] | 0.1 to 1 µM
COCCOc1cccc(Cn2nc(-c3nc(-c4ccc(OC(F)(F)F)cc4)cs3)nc2C)c1 [Example 90, 1-{[3-(2-Methoxyethoxy)phenyl]methyl}-5-methyl-3-{4-[4-(trifluoromethoxy)phenyl]-1,3-thiazol-2-yl}-1H-1,2,4-triazole] | 0.1 to 1 µM
Cc1nc(-c2nc(-c3ccc(OC(F)(F)F)cc3)cs2)nn1Cc1cccc(OCCO)c1 [Example 91, 2-{3-[(5-Methyl-3-{4-[4-(trifluoromethoxy)phenyl]-1,3-thiazol-2-yl}-1H-1,2,4-triazol-1-yl)methyl]phenoxy}ethan-1-ol] | 0.1 to 1 µM
Cc1nc(-c2ncc(-c3ccc(OC(F)(F)F)cc3)o2)nn1Cc1ccnc(N2CCN(C)CC2)c1 [Example 92, 1-Methyl-4-{4-[(5-methyl-3-{5-[4-(trifluoromethoxy)phenyl]-1,3-oxazol-2-yl}-1H-1,2,4-triazol-1-yl)methyl]pyridin-2-yl}piperazine] | < 0.1 µM
Cc1nc(-c2ncc(-c3ccc(OC(F)(F)F)cc3)o2)nn1Cc1ccnc(N2CCOCC2)c1 [Example 93, 4-{4-[(5-methyl-3-{5-[4-(trifluoromethoxy)phenyl]-1,3-oxazol-2-yl}-1H-1,2,4-triazol-1-yl)methyl]pyridin-2-yl}morpholine] | 0.1 to 1 µM
Cc1nc(-c2cc(-c3ccc(OC(F)(F)F)cc3)no2)nn1Cc1cccc(N2CCC(S(C)(=O)=O)CC2)c1 [Example 94, 5-(5-Methyl-1-(3-(4-(methylsulfonyl)piperidin-1-yl)benzyl)-1H-1,2,4-triazol-3-yl)-3-(4-(trifluoromethoxy)phenyl)isoxazole] | < 0.1 µM
Cc1nc(-c2cc(-c3ccc(OC(F)(F)F)cc3)no2)nn1Cc1ccnc(N2CCC(S(C)(=O)=O)CC2)c1 [Example 95, 5-(5-Methyl-1-((2-(4-(methylsulfonyl)piperidin-1-yl)pyridin-4-yl)methyl)-1H-1,2,4-triazol-3-yl)-3-(4-(trifluoromethoxy)phenyl)isoxazole] | < 0.1 µM
Cc1nc(-c2cc(-c3ccc(OC(F)(F)F)cc3)on2)nn1Cc1cccc(N2CCC(S(C)(=O)=O)CC2)c1 [Example 96, 3-(5-Methyl-1-(3-(4-(methylsulfonyl)piperidin-1-yl)benzyl)-1H-1,2,4-triazol-3-yl)-5-(4-(trifluoromethoxy)phenyl)isoxazole] | < 0.1 µM
Cc1nc(-c2cc(-c3ccc(OC(F)(F)F)cc3)on2)nn1Cc1ccnc(N2CCC(S(C)(=O)=O)CC2)c1 [Example 97, 3-(5-Methyl-1-((2-(4-(methylsulfonyl)piperidin-1-yl)pyridin-4-yl)methyl)-1H-1,2,4-triazol-3-yl)-5-(4-(trifluoromethoxy)phenyl)isoxazole] | 0.1 to 1 µM
Cc1nc(-c2nnc(-c3ccc(C(C)(C)C)cc3)o2)nn1Cc1cccc(N2CCOCC2)c1 [Example 98, 4-(3-((3-(5-(4-(tert-butyl)phenyl)-1,3,4-oxadiazol-2-yl)-5-methyl-1H-1,2,4-triazol-1-yl)methyl)phenyl)morpholine] | < 0.1 µM
Cc1nc(-c2nc(-c3ccc(OC(F)(F)F)cc3)no2)nn1Cc1cncnc1 [Example 99, 5-(5-methyl-1-(pyrimidin-5-ylmethyl)-1H-1,2,4-triazol-3-yl)-3-(4-(trifluoromethoxy)phenyl)-1,2,4-oxadiazole] | 1 to 10 µM
Cc1cccc(Cn2nc(-c3nc(-c4ccc(OC(F)(F)F)cc4)no3)nc2C)c1 [Example 100, 5-(5-methyl-1-(3-methylbenzyl)-1H-1,2,4-triazol-3-yl)-3-(4-(trifluoromethoxy)phenyl)-1,2,4-oxadiazole] | 1 to 10 µM
COc1cccc(Cn2nc(-c3nc(-c4ccc(OC(F)(F)F)cc4)no3)nc2C)c1 [Example 101, 5-(1-(3-methoxybenzyl)-5-methyl-1H-1,2,4-triazol-3-yl)-3-(4-(trifluoromethoxy)phenyl)-1,2,4-oxadiazole] | 0.1 to 1 µM
Cc1nc(-c2nc(-c3ccc(OC(F)(F)F)cc3)no2)nn1Cc1cccc(C(F)(F)F)c1 [Example 102, 5-(5-methyl-1-(3-(trifluoromethyl)benzyl)-1H-1,2,4-triazol-3-yl)-3-(4-(trifluoromethoxy)phenyl)-1,2,4-oxadiazole] | 1 to 10 µM

Compound | IC50
Cc1nc(-c2nc(-c3ccc(OC(F)(F)F)cc3)no2)nn1Cc1cccc(OC(F)F)c1 [Example 103, 5-(1-(3-(difluoromethoxy)benzyl)-5-methyl-1H-1,2,4-triazol-3-yl)-3-(4-(trifluoromethoxy)phenyl)-1,2,4-oxadiazole] | 0.1 to 1 µM
Cc1nc(-c2nc(-c3ccc(OC(F)(F)F)cc3)no2)nn1Cc1cccc(S(N)(=O)=O)c1 [Example 104, 3-((5-methyl-3-(3-(4-(trifluoromethoxy)phenyl)-1,2,4-oxadiazol-5-yl)-1H-1,2,4-triazol-1-yl)methyl)benzenesulfonamide] | 0.1 to 1 µM
Cc1nc(-c2nc(-c3ccc(OC(F)(F)F)cc3)no2)nn1Cc1ccc(S(N)(=O)=O)cc1 [Example 105, 4-((5-methyl-3-(3-(4-(trifluoromethoxy)phenyl)-1,2,4-oxadiazol-5-yl)-1H-1,2,4-triazol-1-yl)methyl)benzenesulfonamide] | 0.1 to 1 µM
Cc1nc(-c2nc(-c3ccc(OC(F)(F)F)cc3)no2)nn1Cc1cccc(S(C)(=O)=O)c1 [Example 106, 5-(5-methyl-1-(3-(methylsulfonyl)benzyl)-1H-1,2,4-triazol-3-yl)-3-(4-(trifluoromethoxy)phenyl)-1,2,4-oxadiazole] | < 0.1 µM
Cc1nc(-c2nc(-c3ccc(OC(F)(F)F)cc3)no2)nn1Cc1cccc(C#N)c1 [Example 107, 3-((5-methyl-3-(3-(4-(trifluoromethoxy)phenyl)-1,2,4-oxadiazol-5-yl)-1H-1,2,4-triazol-1-yl)methyl)benzonitrile] | 0.1 to 1 µM
Cc1cccc(Cn2nc(-c3nc(-c4ccc(OC(F)(F)F)cc4)no3)nc2C)n1 [Example 108, 5-(5-methyl-1-((6-methylpyridin-2-yl)methyl)-1H-1,2,4-triazol-3-yl)-3-(4-(trifluoromethoxy)phenyl)-1,2,4-oxadiazole] | 1 to 10 µM
Cc1nc(-c2nc(-c3ccc(OC(F)(F)F)cc3)no2)nn1Cc1ccc(C(C)C)cc1 [Example 109, 5-(1-(4-isopropylbenzyl)-5-methyl-1H-1,2,4-triazol-3-yl)-3-(4-(trifluoromethoxy)phenyl)-1,2,4-oxadiazole] | 0.1 to 1 µM
Cc1nc(-c2nc(-c3ccc(OC(F)(F)F)cc3)no2)nn1Cc1cccc2c1cnn2C [Example 110, 5-(5-methyl-1-((1-methyl-1H-indazol-4-yl)methyl)-1H-1,2,4-triazol-3-yl)-3-(4-(trifluoromethoxy)phenyl)-1,2,4-oxadiazole] | 0.1 to 1 µM
Cc1nc(-c2nc(-c3ccc(OC(F)(F)F)cc3)no2)nn1Cc1ccc2c(c1)OCO2 [Example 111, 5-(1-(benzo[d][1,3]dioxol-5-ylmethyl)-5-methyl-1H-1,2,4-triazol-3-yl)-3-(4-(trifluoromethoxy)phenyl)-1,2,4-oxadiazole] | 0.1 to 1 µM
COc1ccc(Cn2nc(-c3nc(-c4ccc(OC(F)(F)F)cc4)no3)nc2C)cc1C(F)(F)F [Example 112, 5-(1-(4-methoxy-3-(trifluoromethyl)benzyl)-5-methyl-1H-1,2,4-triazol-3-yl)-3-(4-(trifluoromethoxy)phenyl)-1,2,4-oxadiazole] | 1 to 10 µM
Cc1nc(-c2nc(-c3ccc(OC(F)(F)F)cc3)no2)nn1Cc1ccc2ccccc2n1 [Example 113, 5-(5-methyl-1-(quinolin-2-ylmethyl)-1H-1,2,4-triazol-3-yl)-3-(4-(trifluoromethoxy)phenyl)-1,2,4-oxadiazole] | < 0.1 µM
Cc1nc(-c2nc(-c3ccc(OC(F)(F)F)cc3)no2)nn1Cc1ccc2c(c1)nnn2C [Example 114, 5-(5-methyl-1-((1-methyl-1H-benzo[d][1,2,3]triazol-5-yl)methyl)-1H-1,2,4-triazol-3-yl)-3-(4-(trifluoromethoxy)phenyl)-1,2,4-oxadiazole] | 0.1 to 1 µM
COc1nccc(Cn2nc(-c3nc(-c4ccc(OC(F)(F)F)cc4)no3)nc2C)n1 [Example 115, 5-(1-((2-methoxypyrimidin-4-yl)methyl)-5-methyl-1H-1,2,4-triazol-3-yl)-3-(4-(trifluoromethoxy)phenyl)-1,2,4-oxadizole] | 1 to 10 µM
Cc1nc(-c2noc(-c3ccc(C(C)(C)C)cc3)n2)nn1Cc1cccc(N2CCN(C)CC2)c1 [Example 116, 5-(4-(tert-butyl)phenyl)-3-(5-methyl-1-(3-(4-methylpiperazin-1-yl)benzyl)-1H-1,2,4-triazol-3-yl)-1,2,4-oxadiazole] | < 0.1 µM
COCCCNc1nccc(Cn2nc(-c3nc(-c4ccc(OC(F)(F)F)cc4)no3)nc2C)n1 [Example 117, N-(3-methoxypropyl)-4-((5-methyl-3-(3-(4-(trifluoromethoxy)phenyl)-1,2,4-oxadiazol-5-yl)-1H-1,2,4-triazol-1-yl)methyl)pyrimidin-2-amine] | 0.1 to 1 µM
Cc1nc(-c2nc(-c3ccc(OC(F)(F)F)cc3)no2)nn1Cc1cccc(C(N)=O)c1 [Example 118, 3-((5-methyl-3-(3-(4-(trifluoromethoxy)phenyl)-1,2,4-oxadiazol-5-yl)-1H-1,2,4-triazol-1-yl)methyl)benzamide] | < 0.1 µM
